Experiments:
Type in all cases: cell-based, human
NAG-1 [1] = test: Northern blot analysis of NAG-1 mRNA expression in HCT-116 cells
Description: Upon reaching 60–80% confluence in 10 cm plates, the cells were treated at indicated concentrations and times with either different NSAIDs or PPARγ ligands in the absence of serum. Total RNAs were isolated using TRIzol reagent (Life Technologies) according to the manufacturer's protocol. For Northern blot analysis, […] of total RNA was denatured at 55° C. for 15 min and separated in a 1.2% agarose gel containing 2.2 M formaldehyde, and transferred to Hybond-N membrane ([…]). After fixing the membrane by UV, blots were prehybridized in hybridization solution (Rapid-hyb buffer, […]) for 1 hr at 65° C. followed by hybridization with cDNA labeled with [α-^32P]dCTP by random primer extension (DECAprimeII kit, Ambion). The probes used were either full-length NAG-1 fragment or PTGFB clone (generously provided by Dr. Bento-Soar of the University of Iowa). After 4 hr incubation at 65° C., the blots were washed once with 2×SSC/0.1% SDS at RT and twice with 0.1×SSC/0.1% SDS at 65° C. Messenger RNA abundance Was estimated by intensities of the hybridization bands of autoradiographs using Scion Image (Scion). Equivalent loading of RNA samples was confirmed by hybridizing the same blot with a ^32P-labeled b-actin probe which recognizes RNA of approximately 2 kb.
To determine whether other NSAIDs increased apoptosis and NAG-1 expression, tests were conducted to determine whether variants of NSAIDs induced NAG-1 gene expression and NSAID-induced apoptosis. Aspirin, ibuprofen, indomethacin, and sulindac sulfide were selected since they are known COX inhibitors. […] HCT-116 cells were treated with different NSAIDs (vehicle, 0.2% DMSO; aspirin, 10 mM; ibuprofen, 1 mM; sodium salicylate, 5 mM; sulindac sulfide, 50 μM; sulindac, 40 μM; acetaminophen, 100 μM) for 24 hr in the absence of serum. Northern analysis was performed using NAG-1 and β-actin as probes. Total RNAs were isolated from NSAID-treated HCT-116 cells after 24 hr treatment and Northern blot was performed using NAG-1 cDNA as a probe (data not shown). […] Each of the doses were as follows: aspirin (1, 5, 10 mM); ibuprofen (100, 500, 1000 μM); salicylate (1, 2.5, 5 mM); sulindac sulfide (1, 10, 50 μM); sulindac (10, 20, 40 μM); acetaminophen (10, 50, 100 μM). After 48 hr treatment with NSAIDs in the presence of serum, cells were harvested and assayed as described in FIG. 1C. Apoptosis detected by PI staining was measured by FACS, as known in the art (FIG. 2A; HCT-116 cells were treated with different NSAIDs (vehicle, 0.2% DMSO; Aspirin, 10 mM; Ibuprofen, 1 mM; Sodium Salicylate, 5 mM; Sulindac Sulfide, 50 μM; Sulindac, 40 μM; Acetaminophen, 100 μM) for 24 hr in the absence of serum. Northern analysis was performed using NAG-1 and β-actin as probes. The open bars represent the relative expression of NAG-1 mRNA over the control (vehicle). The hatched bars represent the relative apoptosis ratio over vehicle treatment by PI staining methods. N=3±S.D.).
In the Table below, HCT-116 cells were treated with different NSAIDs (vehicle, 0.2% DMSO) for 24 hr in the absence of serum. Northern analysis was performed using NAG-1 and β-actin as probes. The data represent relative expression of NAG-1 mRNA over the control (1.0). Each NSAID was tested at 3 different concentrations and maximally effective concentration used for apoptosis determination. Apoptosis ratio by PI staining was measured by FACS. After 48 hr treatment with NSAIDs in the presence of serum, cells were harvested and assayed. The data represent relative apoptosis ratio over vehicle treatment by PI staining methods. TACS™ Annexin V-FITC kit was also used to confirm apoptosis.

NAG-1 [2] = test: Western blot analysis of secreted NAG-1 protein from HCT-116 cells; details: HCT-116, 100 μM INDO, 36 and 48 hr, no serum
Description: The level of secreted NAG-1 was evaluated using Western blot analysis with anti-human-NAG-1 antibody (generously provided by Dr. Paralkar of Pfizer). HCT-116 cells were grown to 60–80% confluency in 10 cm plates followed by 48 hr treatment in the absence of serum with either NSAIDs or TGZ. The media were harvested and concentrated approximately 15-fold using Centriprep 10 concentrators (Amicon). Proteins (30 μg) were separated by 15% SDS-PAGE and transferred for 1 hr onto nitrocellulose membrane (Schleicher & Schuell). The blots were blocked for 1 hr with 5% skim milk in TBS/Tween 0.05%, and probed with anti-NAG-1 antibody (1 μg/ml in TBS-0.2%-Tween20) at […] overnight. After washing, the blots were treated with horseradish peroxidase-conjugated secondary antibody for 1 hr and washed several times. The signal was detected by enhanced chemiluminescence system (AMERSHAM) and autoradiography.
HCT-116 cells were treated with 100 μM INDO in the absence of serum for various times. In FIG. 1B, left panel. 10 μg of total RNA was loaded in each lane. Northern blotting was performed using the NAG-1 probe and re-probed with β-actin probe. The hybridization signals were quantitated using Scion Image software (Scion). Levels of the 1.3 kb NAG-1 transcript were normalized to the levels of β-actin transcripts and represented relative to 0 hr treatment. […] The signal was detected by ECL reagent (AMERSHAM).

NAG-1 [3] = test: Northern blot NAG-1 induction in U937 leukemia cells; details: INDO treatment, 24 hr
Description: NSAID-induced apoptosis is not restricted to colorectal cells, as NSAIDs can induce apoptosis in breast, lung, leukemia, and prostate cell lines. To test for the induction of NAG-1 by NSAIDs in different cell lines, A549 lung epithelial cells, MCF-7 mammary cells, PC-3 prostate cancer cells, and U937 leukemia cell lines were treated with several concentrations of INDO and aspirin. Then, as described above, Northern blot analysis was performed. […] Quiescent cells were grown for 24 hr in the presence of indicated NSAIDs. Total RNAs were isolated and subjected to Northern analysis using NAG-1 and β-actin as probes. The blots contained 10 μg of total RNA from INDO- or Aspirin (Asp)-treated cells with indicated doses. “V” indicates total RNAs from vehicle (0.2% DMSO) treated cells. The results shown are representative of those obtained in two experiments.

NAG-1 [4] = test: Northern blot analysis of NAG-1 mRNA expression in HCT-116 cells; details: HCT-116, 100 μM INDO, 48 hr, no serum

Q: COc1ccc2c(c1)c(CC(=O)O)c(C)n2C(=O)c1ccc(Cl)cc1 [Indomethacin] was tested. Which “NAG-1 mRNA expression” value (NAG-1 [1]; HCT-116, 100 μM INDO, 24 hr, no serum) did it give?
A: Its value is “significant increase”.

Q: And the “NAG-1 Induction (mRNA) Fold” value (NAG-1 [1]; HCT-116, 24 hr in absence of serum, relative NAG-1 mRNA over vehicle control (1.0), tested over the concentration range listed)?
A: The value was 2.2 Fold.

Q: And the NAG-1 protein expression (NAG-1 [2])?
A: The NAG-1 protein expression was “marked increase”.

Q: And the NAG-1 expression (NAG-1 [3])?
A: Its NAG-1 expression is “only a modest increase”.

Q: And the “NAG-1 mRNA expression” value (NAG-1 [4])?
A: The value was “further increase”.

From US7141661B2, “Non-steroidal anti-inflammatory drug activated gene with anti-tumorigenic properties” (The United States of America as represented by the …, priority 2000, dated 2006)
